Source: PMC5869189 (Frontiers in Immunology, 2018)
“And” between values parts separate entries of the source, which are not always exact repeats. Equal values may be shown once.

Experiments:
HLA-DRB1*15:02 = target: T1, HLA-DRB1*15:02 (Homo sapiens, UniProt P01903+P01911, V115G); type: binding; parameters: reference not given here; settings: 24–72 h at 37°C
T1 construct: Purified HLA-DR heterodimers derived from the relevant EBV B-lymphoblastoid cell lines; endogenous in cells

[1] = system: PBMC from healthy, seropositive donors; type: cell-based, human
HLA-DRB1*09 = type: binding, human; parameters: reference not given here; settings: 24–72 h at 37°C
HLA-DRB1*11:01 = target: T2, HLA-DRB1*11:01 (Homo sapiens, UniProt P01903+P01911, A100R/A169T/A87E/I96F/K41T/L162R/M171V/P40S/Q125H/Q178H/Q39Y/Q99D/R42S/S66Y/T262R/V115G/W38E); type: binding; parameters: reference not given here; settings: 24–72 h at 37°C
T2 construct: Purified HLA-DR heterodimers derived from the relevant EBV B-lymphoblastoid cell lines; endogenous in cells

HLA-DRB1*15:01 = target: T3, HLA-DRB1*15:01 (Homo sapiens, UniProt P01903+P01911); type: binding; parameters: reference not given here; settings: 24–72 h at 37°C
T3 construct: Purified HLA-DR heterodimers derived from the relevant EBV B-lymphoblastoid cell lines; endogenous in cells

HLA-DRB1*07 = type: binding, human; parameters: reference not given here; settings: 24–72 h at 37°C
HLA-DRB1*12:02 = HLA-DRB1*12:02 (Homo sapiens, UniProt P01903+P01911, A100R/A169T/D57E/D86V/F55L/H45Y/I96F/K41T/L162R/M171V/P40S/Q125H/Q178H/Q39Y/Q99D/R42G/S66L/T262R/V114A/V67L/W38E/Y59H/Y61H/Y89S); type: binding; parameters: reference not given here; settings: 24–72 h at 37°C
HLA-DRB1*04 = type: binding, human; parameters: reference not given here; settings: 24–72 h at 37°C
[2] = system: PBMC from melioidosis patients and control donors; type: cell-based, human
[3] = system: HLA-DQB1*0602 and HLA-DQB1*0302; settings: cited from earlier work
[4] = system: HLA class-II heterodimers (HLA DRB1*04, 07, 09, 11:01, 12:02, 15:01, 15:02); type: binding, human

T2 sequence (P01903 26-254, other chains not shown): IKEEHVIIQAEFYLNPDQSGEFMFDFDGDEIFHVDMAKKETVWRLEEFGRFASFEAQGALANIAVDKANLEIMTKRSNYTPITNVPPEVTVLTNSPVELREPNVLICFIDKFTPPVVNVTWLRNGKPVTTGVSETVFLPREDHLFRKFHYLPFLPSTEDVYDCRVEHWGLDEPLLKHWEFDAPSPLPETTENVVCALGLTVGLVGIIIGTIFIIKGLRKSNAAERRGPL
T1 sequence (P01903 26-254, other chains not shown): as above

Row | Sequence | HLA binding, relative HLA binding affinity (HLA-DRB1*15:02) | % Responders [1] | Elispot, Median SFC/10^6 PBMCs of HLA donors [1] | Median SFC/10^6 PBMCs (IFN-g) [1] | HLA binding, relative HLA binding affinity (HLA-DRB1*09) | HLA binding, relative HLA binding affinity (HLA-DRB1*11:01) | HLA binding, relative HLA binding affinity (HLA-DRB1*15:01) | HLA binding, relative HLA binding affinity (HLA-DRB1*07) | HLA binding, relative HLA binding affinity (HLA-DRB1*12:02) | HLA binding, relative HLA binding affinity (HLA-DRB1*04) | IFNγ response compared between cohorts (Figure 2) [2] | IFNγ response, acute septicemic melioidosis compared with recovered individuals (Figure 3) [2] | Presentation through HLA-DQ [3] | HLA class-II binding across the panel (in words) [4]
1 | NQNPQITASVVGYTDSTGSA [BPSL0999_P14] | 542 | 95.7% and 96% | 583 SFC/10^6 PBMCs and 417 SFC/10^6 PBMCs and 601 SFC/10^6 PBMCs and 460 SFC/10^6 PBMCs and 567 SFC/10^6 PBMCs and 588 SFC/10^6 PBMCs and 489 SFC/10^6 PBMCs | 373 | 37 | 189 | 1 | 30.2 | >136 | 33 | – | – | – | –
2 | VVVATGYTDRIGSDKYNDRL [BPSL2522_P14] | 1 826 | 100% | – | 290 | >689 | >278 | 10 | >336 | >136 | >145 | lower in recovered patients than in seropositive healthy donors | lower during acute disease | – | –
3 | PAGKQKLDELAAKIQGMNVE [BPSL2522_P12] | >3 333 | 97.1% and 97% | – | 308 | >689 | 77 | >270 | 333 | 40 | >145 | – | – | – | –
4 | KDFTFVCPTEIVEFAKLAKQ [BPSL2096_P6] | 222 | 82.4% and 82% | – | 333 | 18 | 43 | 7 | 0.3 | 25 | 9 | – | lower during acute disease | can be presented also through HLA-DQB1*0602 and HLA-DQB1*0302 | moderate to high affinity
5 | RGVAANRLSAQGMGASNPIA [BPSL0999_P18] | >3 333 | 93.6% and 94% | 617 SFC/10^6 PBMCs and 415 SFC/10^6 PBMCs and 456 SFC/10^6 PBMCs and 487 SFC/10^6 PBMCs and 634 SFC/10^6 PBMCs and 616 SFC/10^6 PBMCs and 441 SFC/10^6 PBMCs | 375 | 367 | 72 | 157 | 11 | 14 | 82 | – | – | – | –
